Assay results reported in patent US20240287080A1 (IDEAYA Biosciences Inc., priority 2021, published 2024).

biological target: T1, Pol theta (1-899) (Homo sapiens, UniProt O75417); assay: Pol theta ATPase activity, NADH oxidation-coupled enzymatic assay (ATPase NADH coupling: Standard Screening: hPolQ); type: biochemical; conditions: Pol theta (1-899) 5 nM, NADH oxidation-coupled ATPase assay; compounds of Table 3
T1 construct: Pol theta (1-899) (5 nM) in assay buffer
Summary of the method: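 Rates of ATP hydrolysis taken from 60-min A340 traces of NADH oxidation via PK/LDH coupling, then fit four-parameter for IC50, Hill slope and max inhibition. Enzyme (5 nM, 1-899) and compounds preincubated 15 min before ATP 100 μM and 50-thymine ssDNA 300 nM (stock, equal volume added).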

T1 sequence (O75417 1-899): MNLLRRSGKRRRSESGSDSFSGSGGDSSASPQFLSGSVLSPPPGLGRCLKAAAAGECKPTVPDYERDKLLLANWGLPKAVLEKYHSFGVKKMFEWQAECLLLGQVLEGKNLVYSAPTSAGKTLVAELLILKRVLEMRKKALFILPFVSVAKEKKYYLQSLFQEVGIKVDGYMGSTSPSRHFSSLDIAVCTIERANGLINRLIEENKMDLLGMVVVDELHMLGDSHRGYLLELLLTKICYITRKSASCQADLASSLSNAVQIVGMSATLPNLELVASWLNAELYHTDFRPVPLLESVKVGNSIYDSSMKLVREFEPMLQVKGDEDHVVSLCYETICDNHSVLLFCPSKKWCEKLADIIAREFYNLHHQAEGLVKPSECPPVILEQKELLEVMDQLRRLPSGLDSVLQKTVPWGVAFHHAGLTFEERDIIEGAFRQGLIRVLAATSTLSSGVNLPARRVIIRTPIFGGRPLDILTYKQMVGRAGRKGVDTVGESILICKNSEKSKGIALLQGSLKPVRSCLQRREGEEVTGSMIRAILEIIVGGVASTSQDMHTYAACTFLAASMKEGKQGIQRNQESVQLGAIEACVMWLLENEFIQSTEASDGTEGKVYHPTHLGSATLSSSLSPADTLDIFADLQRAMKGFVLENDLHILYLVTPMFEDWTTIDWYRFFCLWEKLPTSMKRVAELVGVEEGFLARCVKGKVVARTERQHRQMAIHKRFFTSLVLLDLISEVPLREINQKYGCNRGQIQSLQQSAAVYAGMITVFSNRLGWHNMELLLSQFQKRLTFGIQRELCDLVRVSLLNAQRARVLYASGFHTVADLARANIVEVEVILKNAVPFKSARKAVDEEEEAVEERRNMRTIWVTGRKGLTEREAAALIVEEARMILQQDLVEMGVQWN

IC50 [nM]	SMILES
≤ 200	COc1cnc(Cl)c(F)c1-c1cc(C)ncc1C(=O)Nc1nnc(O[C@H]2CC[C@H](CO)CC2)s1 [Example 316, 2′-chloro-3′-fluoro-N-(5-(((1r,4r)-4-(hydroxymethyl)cyclohexyl)oxy)-1,3,4-thiadiazol-2-yl)-5′-methoxy-6-methyl-[4,4′-bipyridine]-3-carboxamide]
≤ 200	COc1cnc(C)c(F)c1-c1cc(C)ncc1C(=O)Nc1nnc(O[C@H]2CO[C@H]3OCC[C@H]32)s1 [Example 243, 3′-fluoro-N-(5-(((3R,3aS,6aR)-hexahydrofuro[2,3-b]furan-3-yl)oxy)-1,3,4-thiadiazol-2-yl)-5′-methoxy-2′,6-dimethyl-[4,4′-bipyridine]-3-carboxamide]
1000 to 10000	COc1nnc(NC(=O)c2cnc(C)cc2-c2cccc(C(N)=O)c2)s1 [Example 488, 4-(3-carbamoylphenyl)-N-(5-methoxy-1,3,4-thiadiazol-2-yl)-6-methylnicotinamide]
≤ 200	COc1cnc(C)cc1-c1cc(C)ncc1C(=O)Nc1nnc(OC2CC=CC2)s1 [Example 240, N-(5-(cyclopent-3-en-1-yloxy)-1,3,4-thiadiazol-2-yl)-5′-methoxy-2′,6-dimethyl-[4,4′-bipyridine]-3-carboxamide]
≤ 200	Cc1cc(-c2cc(Cl)ncc2OC(F)F)c(C(=O)Nc2nnc(O[C@@H]3CCC[C@@H](O)C3)s2)cn1 (single isomer, unassigned) [Example 251]
500 to 1000	COc1nnc(NC(=O)c2cnc(C)cc2-c2cc(F)cnc2OC)s1 [Example 431, 5-fluoro-2-methoxy-N-(5-methoxy-1,3,4-thiadiazol-2-yl)-6′-methyl-[3,4′-bipyridine]-3′-carboxamide]
1000 to 10000	COc1nnc(NC(=O)c2cnc(C)cc2-c2ccc3cn(C)nc3c2)s1 [Example 417, N-(5-methoxy-1,3,4-thiadiazol-2-yl)-6-methyl-4-(2-methyl-2H-indazol-6-yl)nicotinamide]
≤ 200	COc1cnc(Cl)cc1-c1cc(C)ncc1C(=O)Nc1nnc(OC2(C3CCOC3)CC2)s1 (stereo not drawn) [Example 288, 2′-chloro-5′-methoxy-6-methyl-N-(5-(1-(tetrahydrofuran-3-yl)cyclopropoxy)-1,3,4-thiadiazol-2-yl)-[4,4′-bipyridine]-3-carboxamide]
1000 to 10000	COc1nnc(NC(=O)c2cnc(C)cc2-c2ccc3c(c2)CCN(C)C3)s1 [Example 432, N-(5-methoxy-1,3,4-thiadiazol-2-yl)-6-methyl-4-(2-methyl-1,2,3,4-tetrahydroisoquinolin-6-yl)nicotinamide]
1000 to 10000	COc1nnc(NC(=O)c2cnc(C)cc2-c2cnc(N)c(C#N)c2)s1 [Example 362, 6-amino-5-cyano-N-(5-methoxy-1,3,4-thiadiazol-2-yl)-6′-methyl-[3,4′-bipyridine]-3′-carboxamide]
1000 to 10000	COc1nnc(NC(=O)c2cnc(C)cc2-c2cnc(N3CCOCC3)nc2)s1 [Example 427, N-(5-methoxy-1,3,4-thiadiazol-2-yl)-6-methyl-4-[2-(morpholin-4-yl)pyrimidin-5-yl]pyridine-3-carboxamide]
1000 to 10000	COc1nnc(NC(=O)c2cnc(C)cc2-c2cnnc(C)c2)s1 [Example 440, N-(5-methoxy-1,3,4-thiadiazol-2-yl)-6-methyl-4-(6-methylpyridazin-4-yl)nicotinamide]
1000 to 10000	COc1nnc(NC(=O)c2cnc(C)cc2-c2ccsc2)s1 [Example 388, N-(5-methoxy-1,3,4-thiadiazol-2-yl)-6-methyl-4-(thiophen-3-yl)nicotinamide]
1000 to 10000	COc1nnc(NC(=O)c2cnc(C)cc2-c2cnc(C(F)(F)F)c(F)c2)s1 [Example 342, 5-fluoro-N-(5-methoxy-1,3,4-thiadiazol-2-yl)-6′-methyl-6-(trifluoromethyl)-[3,4′-bipyridine]-3′-carboxamide]
1000 to 10000	COc1nnc(NC(=O)c2cnc(C)cc2-c2ccc3c(c2)OCCN3C)s1 [Example 418, N-(5-methoxy-1,3,4-thiadiazol-2-yl)-6-methyl-4-(4-methyl-3,4-dihydro-2H-1,4-benzoxazin-7-yl)pyridine-3-carboxamide]
500 to 1000	COc1nnc(NC(=O)c2cnc(C)cc2-c2ccccc2C)s1 [Example 389, N-(5-methoxy-1,3,4-thiadiazol-2-yl)-6-methyl-4-(2-methylphenyl)pyridine-3-carboxamide]
500 to 1000	COc1nnc(NC(=O)c2cnc(C)cc2-c2cc(F)cc(C#N)c2)s1 [Example 439, 4-(3-cyano-5-fluorophenyl)-N-(5-methoxy-1,3,4-thiadiazol-2-yl)-6-methylpyridine-3-carboxamide]
500 to 1000	COc1nnc(NC(=O)c2cnc(C)cc2-c2cc(F)cc(F)c2)s1 [Example 337, 4-(3,5-difluorophenyl)-N-(5-methoxy-1,3,4-thiadiazol-2-yl)-6-methylpyridine-3-carboxamide]
1000 to 10000	COc1nnc(NC(=O)c2cnc(C)cc2-c2cccc(OC)c2C#N)s1 [Example 411, 4-(2-cyano-3-methoxyphenyl)-N-(5-methoxy-1,3,4-thiadiazol-2-yl)-6-methylpyridine-3-carboxamide]
1000 to 10000	COc1nnc(NC(=O)c2cnc(C)cc2-c2cccc(NS(C)(=O)=O)c2)s1 [Example 400, 4-(3-methanesulfonamidophenyl)-N-(5-methoxy-1,3,4-thiadiazol-2-yl)-6-methylpyridine-3-carboxamide]

same assay, conditions: Table 4; Pol theta (1-899) 5 nM, ATP, dT50 ssDNA

IC50 [nM]	SMILES
≤ 200	COc1nnc(NC(=O)c2cnc(C)cc2-c2ccnc(Cl)c2)s1 [Example 75, 2′-chloro-N-(5-methoxy-1,3,4-thiadiazol-2-yl)-6-methyl-(4,4′-bipyridine)-3-carboxamide]
≤ 200	COc1cnc(Cl)cc1-c1cc(C)ncc1C(=O)Nc1nnc(O[C@H]2CCO[C@H]2C)s1 (single isomer, unassigned) [Example 76, 2′-chloro-5′-methoxy-6-methyl-N-(5-(((2r,3r)-2-methyltetrahydrofuran-3-yl)oxy)-1,3,4-thiadiazol-2-yl)-(4,4′-bipyridine)-3-carboxamide]
1000 to 10000	COc1nnc(NC(=O)c2cnc(C)cc2-c2cc3[nH]ncc3cc2OC)s1 [Example 67, N-(5-methoxy-1,3,4-thiadiazol-2-yl)-4-(5-methoxy-1H-indazol-6-yl)-6-methylnicotinamide]
200 to 500	COc1cccc(F)c1-c1cc(C)ncc1C(=O)Nc1nnc(OCC(C)(C)C(F)(F)F)s1 [Example 4, 4-(2-fluoro-6-methoxyphenyl)-6-methyl-N-(5-(3,3,3-trifluoro-2,2-dimethylpropoxy)-1,3,4-thiadiazol-2-yl)pyridine-3-carboxamide]

SMILES	IC50 [nM]
COc1cnc(Cl)cc1-c1cc(C)ncc1C(=O)Nc1nnc(OCC(C)C)s1 [Example 21, 2′-chloro-N-(5-isobutoxy-1,3,4-thiadiazol-2-yl)-5′-methoxy-6-methyl-(4,4′-bipyridine)-3-carboxamide]	≤ 200

same assay, conditions: Table 5; Pol theta (1-899) 5 nM, ATP, dT50 ssDNA

IC50 [nM]	SMILES
200 to 500	COc1cnc(Cl)cc1-c1cc(C)ncc1C(=O)Nc1nnc(O[C@@H]2CCC[C@](C)(O)C2)s1 (single isomer, unassigned) [Example 180]
≤ 200	Cc1cc(-c2cc(Cl)ncc2OC(F)F)c(C(=O)Nc2nnc(O[C@@H]3CCOC3)s2)cn1 [Example 82, (R)-2′-chloro-5′-(difluoromethoxy)-6-methyl-N-(5-((tetrahydrofuran-3-yl)oxy)-1,3,4-thiadiazol-2-yl)-(4,4′-bipyridine)-3-carboxamide]
≤ 200	COc1cnc(Br)cc1-c1cc(C)ncc1C(=O)Nc1nnc(O[C@@H]2CCOC2)s1 [Example 84]
≤ 200	Cc1cc(-c2cc(Cl)ncc2OC(F)F)c(C(=O)Nc2nnc(O[C@@H]3COC4(CC4)C3)s2)cn1 (single isomer, unassigned) [Example 232]
≤ 200	COc1cnc(Br)cc1-c1cc(C)ncc1C(=O)Nc1nnc(O[C@H]2CC[C@@](C)(O)CC2)s1 (single isomer, unassigned) [Example 222, 2′-bromo-N-(5-(((1s,4s)-4-hydroxy-4-methylcyclohexyl)oxy)-1,3,4-thiadiazol-2-yl)-5′-methoxy-6-methyl-(4,4′-bipyridine)-3-carboxamide]
≤ 200	Cc1cc(-c2cc(Cl)ncc2OC(F)F)c(C(=O)Nc2nnc(O[C@H]3CC[C@](C)(O)CC3)s2)cn1 (single isomer, unassigned) [Example 223, 2′-chloro-5′-(difluoromethoxy)-N-(5-(((1r,4r)-4-hydroxy-4-methylcyclohexyl)oxy)-1,3,4-thiadiazol-2-yl)-6-methyl-(4,4′-bipyridine)-3-carboxamide]
≤ 200	COc1cnc(Cl)c(F)c1-c1cc(C)ncc1C(=O)Nc1nnc(O[C@@H]2CCO[C@@H]2C)s1 (single isomer, unassigned) [Example 166]
1000 to 10000	COc1nnc(NC(=O)c2cnc(C)cc2-c2ccc3nscc3c2)s1 [Example 105, 4-(benzo(c)isothiazol-5-yl)-N-(5-methoxy-1,3,4-thiadiazol-2-yl)-6-methylnicotinamide]
≤ 200	COc1cnc(Cl)cc1-c1cc(C)ncc1C(=O)Nc1nnc(O[C@@]2(C)CCOC2)s1 (single isomer, unassigned) [Example 138]
1000 to 10000	COc1nnc(NC(=O)c2cnc(C)cc2-c2ccnc3ncnn23)s1 [Example 91, 4-((1,2,4)triazolo(1,5-a)pyrimidin-7-yl)-N-(5-methoxy-1,3,4-thiadiazol-2-yl)-6-methylnicotinamide]

SMILES	IC50 [nM]
COc1cnc(Cl)cc1-c1cc(C)ncc1C(=O)Nc1nnc(O[C@H]2C[C@@H](OC)C2)s1 (single isomer, unassigned) [Example 132, 2′-chloro-5′-methoxy-N-(5-((1s,3s)-3-methoxycyclobutoxy)-1,3,4-thiadiazol-2-yl)-6-methyl-(4,4′-bipyridine)-3-carboxamide]	≤ 200
